# Measured values: ChEMBL document CHEMBL4414570, “Indole-Diterpenoids with Protein Tyrosine Phosphatase Inhibitory Activities from the Marine-Derived Fungus Penicillium sp. KFD28” (J Nat Prod, 2019)
# Calls of active or inactive are those of the source. The rule behind the calls is not given here.
# Assays:
# [1] = target: Dual specificity protein phosphatase 3 (Homo sapiens) (UniProt P51452); assay: Inhibition of recombinant human VHR expressed in Escherichia coli using p-nitrophenyl phosphate as substrate preincubated for 15 mins followed by substrate addition and measured after 60 mins
# SGC-7901 = assay: Cytotoxicity against human SGC7901 cells assessed as cell viability incubated for 48 hrs by MTT assay; format: functional, cell-based
# K562 = assay: Cytotoxicity against human K562 cells assessed as cell viability incubated for 48 hrs by MTT assay; format: functional, cell-based
# HeLa = assay: Cytotoxicity against human HeLa cells assessed as cell viability incubated for 48 hrs by MTT assay; format: functional, cell-based
# A549 = assay: Cytotoxicity against human A549 cells assessed as cell viability incubated for 48 hrs by MTT assay; format: functional, cell-based
# [2] = target: T1, Tyrosine-protein phosphatase non-receptor type 1 (Homo sapiens, UniProt P18031); assay: Inhibition of recombinant human PTP1B expressed in Escherichia coli using p-nitrophenyl phosphate as substrate preincubated for 15 mins followed by substrate addition and measured after 60 mins
# T1 sequence (P18031 whole entry): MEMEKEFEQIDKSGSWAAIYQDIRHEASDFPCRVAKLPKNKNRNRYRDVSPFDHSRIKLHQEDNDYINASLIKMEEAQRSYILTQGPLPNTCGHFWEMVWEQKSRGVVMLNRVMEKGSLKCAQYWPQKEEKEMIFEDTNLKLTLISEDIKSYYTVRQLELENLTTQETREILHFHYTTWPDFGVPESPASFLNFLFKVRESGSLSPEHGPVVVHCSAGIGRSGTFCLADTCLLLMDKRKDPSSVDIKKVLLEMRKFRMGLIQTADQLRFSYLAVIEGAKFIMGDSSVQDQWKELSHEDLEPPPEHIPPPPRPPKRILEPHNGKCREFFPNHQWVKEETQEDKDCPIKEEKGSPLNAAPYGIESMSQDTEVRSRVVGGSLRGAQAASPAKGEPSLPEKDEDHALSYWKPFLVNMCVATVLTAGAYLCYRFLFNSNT
# [3] = target: T2, Tyrosine-protein phosphatase non-receptor type 2 (Homo sapiens, UniProt P17706); assay: Inhibition of recombinant human TCPTP expressed in Escherichia coli using p-nitrophenyl phosphate as substrate preincubated for 15 mins followed by substrate addition and measured after 60 mins
# T2 sequence (P17706 whole entry): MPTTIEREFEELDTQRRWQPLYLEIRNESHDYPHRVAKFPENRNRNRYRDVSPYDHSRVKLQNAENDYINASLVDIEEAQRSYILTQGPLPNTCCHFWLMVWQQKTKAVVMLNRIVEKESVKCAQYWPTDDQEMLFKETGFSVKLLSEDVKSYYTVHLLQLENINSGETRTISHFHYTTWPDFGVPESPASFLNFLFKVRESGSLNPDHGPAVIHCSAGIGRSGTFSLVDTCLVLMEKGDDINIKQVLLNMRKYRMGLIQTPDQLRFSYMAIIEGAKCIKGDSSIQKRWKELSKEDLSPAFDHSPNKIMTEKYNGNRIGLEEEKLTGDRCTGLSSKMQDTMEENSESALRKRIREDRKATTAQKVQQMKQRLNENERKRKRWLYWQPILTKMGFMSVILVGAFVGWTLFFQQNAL
# [4] = target: Receptor-type tyrosine-protein phosphatase S (Homo sapiens, UniProt Q13332); assay: Inhibition of recombinant human PTPsigma expressed in Escherichia coli using p-nitrophenyl phosphate as substrate preincubated for 15 mins followed by substrate addition and measured after 60 mins
# Chain of Receptor-type tyrosine-protein phosphatase S (Q13332 whole entry): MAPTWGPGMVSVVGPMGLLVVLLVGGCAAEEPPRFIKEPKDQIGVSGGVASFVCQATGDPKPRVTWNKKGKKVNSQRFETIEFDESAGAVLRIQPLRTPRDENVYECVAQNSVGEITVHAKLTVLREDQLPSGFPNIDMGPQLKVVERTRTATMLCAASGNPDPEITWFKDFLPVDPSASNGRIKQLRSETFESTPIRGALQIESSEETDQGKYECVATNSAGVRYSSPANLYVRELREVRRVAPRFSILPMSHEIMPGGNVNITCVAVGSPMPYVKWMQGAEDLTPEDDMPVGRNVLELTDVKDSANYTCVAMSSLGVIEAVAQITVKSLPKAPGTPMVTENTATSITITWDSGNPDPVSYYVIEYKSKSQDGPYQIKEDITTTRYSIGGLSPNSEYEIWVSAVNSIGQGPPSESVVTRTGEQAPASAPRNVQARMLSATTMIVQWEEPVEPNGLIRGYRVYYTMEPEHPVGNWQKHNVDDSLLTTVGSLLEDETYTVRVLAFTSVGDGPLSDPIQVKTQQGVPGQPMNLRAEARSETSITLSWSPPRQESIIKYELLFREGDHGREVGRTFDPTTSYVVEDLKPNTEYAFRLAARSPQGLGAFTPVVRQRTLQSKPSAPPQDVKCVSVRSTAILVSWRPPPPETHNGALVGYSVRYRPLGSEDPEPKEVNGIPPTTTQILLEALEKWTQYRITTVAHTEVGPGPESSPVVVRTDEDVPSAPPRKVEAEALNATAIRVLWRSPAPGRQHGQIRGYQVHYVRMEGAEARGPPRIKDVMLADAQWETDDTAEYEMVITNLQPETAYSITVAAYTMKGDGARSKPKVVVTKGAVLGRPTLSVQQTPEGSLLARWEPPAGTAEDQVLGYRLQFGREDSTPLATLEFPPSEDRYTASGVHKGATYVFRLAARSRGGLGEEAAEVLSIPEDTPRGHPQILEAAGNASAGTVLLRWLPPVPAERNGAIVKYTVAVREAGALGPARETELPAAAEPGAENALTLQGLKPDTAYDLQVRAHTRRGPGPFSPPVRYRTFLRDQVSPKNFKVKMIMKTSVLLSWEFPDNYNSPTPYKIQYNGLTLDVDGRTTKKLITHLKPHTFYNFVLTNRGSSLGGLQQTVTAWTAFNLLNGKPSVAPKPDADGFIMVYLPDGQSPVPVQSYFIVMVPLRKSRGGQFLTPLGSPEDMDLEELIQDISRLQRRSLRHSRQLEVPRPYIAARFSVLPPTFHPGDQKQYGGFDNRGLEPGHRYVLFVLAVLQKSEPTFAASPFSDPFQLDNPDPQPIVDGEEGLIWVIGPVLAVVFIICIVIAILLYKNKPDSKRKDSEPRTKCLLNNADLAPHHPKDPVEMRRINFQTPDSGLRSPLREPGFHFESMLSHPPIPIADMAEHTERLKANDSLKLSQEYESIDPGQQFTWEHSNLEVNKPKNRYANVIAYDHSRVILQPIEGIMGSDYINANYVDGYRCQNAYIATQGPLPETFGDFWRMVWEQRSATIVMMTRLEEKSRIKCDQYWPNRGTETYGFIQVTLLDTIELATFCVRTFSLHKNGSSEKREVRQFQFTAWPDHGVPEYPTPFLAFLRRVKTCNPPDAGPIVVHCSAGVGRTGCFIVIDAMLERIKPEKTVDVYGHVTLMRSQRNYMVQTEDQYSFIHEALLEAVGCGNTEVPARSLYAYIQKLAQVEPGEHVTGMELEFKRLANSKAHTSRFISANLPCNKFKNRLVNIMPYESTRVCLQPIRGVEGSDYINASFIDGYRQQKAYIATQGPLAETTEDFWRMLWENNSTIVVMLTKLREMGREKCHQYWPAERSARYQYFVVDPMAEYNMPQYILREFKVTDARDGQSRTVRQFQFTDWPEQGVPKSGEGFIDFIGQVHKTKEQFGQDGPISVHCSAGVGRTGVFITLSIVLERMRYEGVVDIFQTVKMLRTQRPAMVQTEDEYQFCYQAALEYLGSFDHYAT
# Chain of Dual specificity protein phosphatase 3 (Homo sapiens) (P51452 whole entry, looked up): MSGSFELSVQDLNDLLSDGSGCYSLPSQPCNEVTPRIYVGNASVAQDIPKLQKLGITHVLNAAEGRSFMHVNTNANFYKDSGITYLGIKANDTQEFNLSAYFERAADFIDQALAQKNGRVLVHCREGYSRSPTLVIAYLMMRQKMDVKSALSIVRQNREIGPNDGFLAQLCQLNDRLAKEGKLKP
inhibition [1],IC50 [2],IC50 [4],SMILES,Activity (SGC-7901),Activity (K562),Activity (HeLa),Activity (A549),IC50 [3]
inactive,–,–,CC1(C)CC2=C(Cc3cc4c5c([nH]c4cc32)[C@@]2(C)[C@@H](CC[C@@]3(O)C4=CC(=O)[C@@H](C(C)(C)O)O[C@@]4(O)CC[C@@]32C)C5)C(C)(C)O1,inactive,inactive,inactive,inactive,–
inactive,–,–,CC(C)(O)[C@@H]1CC[C@]2(C=O)[C@H](CC[C@@]3(C)[C@H]2CC[C@H]2Cc4c([nH]c5ccccc45)[C@@]23C)O1,inactive,inactive,inactive,inactive,–
inactive,27 µM,–,C[C@]12CC[C@@H]3OCC(=O)C=C3[C@]1(O)CC[C@H]1Cc3c([nH]c4ccccc34)[C@@]12C,inactive,inactive,inactive,inactive,–
inactive,–,–,CC1(C)O[C@@]23CC[C@@]4(C)[C@@](O)(CC[C@H]5Cc6c([nH]c7ccccc67)[C@@]54C)C2=CC(=O)[C@H]1O3,inactive,inactive,inactive,inactive,–
inactive,13 µM,–,CC(C)(O)[C@H]1O[C@@]2(O)CC[C@@]3(C)C(=CC[C@H]4Cc5c([nH]c6ccccc56)[C@@]43C)C2=CC1=O,inactive,inactive,inactive,inactive,37 µM
inactive,14 µM,38 µM,CC1(C)C[C@H]2[C@@H]3C(=O)CC[C@]4(C)[C@@]5(C)c6[nH]c7ccccc7c6C[C@@H]5CC[C@@]34O[C@@]2(O)[C@@H]1O,inactive,inactive,inactive,inactive,–
inactive,–,–,CC(C)(O)[C@H]1O[C@H]2CC[C@@]3(C)[C@@](O)(CC[C@@H](CC(=O)c4ccccc4N)[C@]3(C)C(=O)O)C2=CC1=O,inactive,inactive,inactive,inactive,–
inactive,–,–,CC(C)(O)[C@@H]1OC(=O)C=C2[C@H](CC[C@@]3(C)[C@@]2(O)CC[C@H]2Cc4c([nH]c5ccccc45)[C@@]23C)O1,inactive,inactive,inactive,inactive,–
inactive,–,–,CC(C)(O)[C@@H]1CC=C2[C@H](CC[C@@]3(C)[C@H]2CC[C@H]2Cc4c([nH]c5ccccc45)[C@@]23C)O1,inactive,inactive,inactive,inactive,–
inactive,–,–,CC1(C)C=C2c3cc4[nH]c5c(c4cc3C[C@@H]2C(C)(C)O1)C[C@@H]1CC[C@@]2(O)C3=CC(=O)[C@@H](C(C)(C)O)O[C@@]3(O)CC[C@]2(C)[C@@]51C,inactive,inactive,inactive,inactive,–
inactive,–,–,CC1(C)CC2=C(Cc3cc4c(cc32)NC(=O)[C@@]2(C)[C@@H](CC[C@@]3(O)C5=CC(=O)[C@@H](C(C)(C)O)O[C@H]5CC[C@@]32C)CC4=O)C(C)(C)O1,inactive,inactive,inactive,inactive,–

SMILES,inhibition [1],IC50 [2],IC50 [4],Activity (SGC-7901),Activity (K562),Activity (HeLa),Activity (A549),IC50 [3]
CC(C)(O)[C@H]1O[C@H]2CC[C@@]3(C)[C@@](O)(CC[C@H]4C(=O)c5c([nH]c6ccccc56)[C@@]43C)C2=CC1=O,inactive,23 µM,–,inactive,inactive,inactive,inactive,35 µM
